Experimental data as given in article PMC6424957 (Scientific Reports, 2019).
Values joined by “and” are separate entries in the source; they are usually repeats but may differ in a detail not shown here. Identical values can stand only once.

Key:
[1] = target: T1, peripheral anionic site (PAS) of EeAChE (Electrophorus electricus, UniProt O42275); format: binding; conditions: EeAChE 7 μM, propidium iodide 8 μM; for % Displacement of propidium iodide, 3 µM: compound 3 µM; for % Displacement of propidium iodide, 20 µM: compound 20 µM
T1 construct: from human erythrocyte and E. electricus (EeAChE) (type VI-S); purchased Sigma-Aldrich (Germany) type VI-S; host or cells: Electrophorus electricus tissue
Source text: The fluorescent assay used to evaluate competitive propidium iodide displacement from the PAS of AChE is commonly used as primary screening method of AChE pro-aggregation activity inhibitors. Propidium iodide is a selective ligand for the PAS of AChE responsible for Aβ binding.
EeAChE was used owing to its high degree of purification, high activity, and lower cost than human AChE. […] The fluorescence intensity of propidium iodide bound with AChE increases several times.
To determine the degree of displacement (% displacement) of propidium iodide from the PAS of AChE, EeAChE (final concentration 7 μM) was incubated with the test compound at a concentration of 3 and 20 μM in 1 mM Tris-HCl buffer pH 8.0, 25 °C for 15 min. Then, propidium iodide solution (final concentration 8 μM) was added, the samples were incubated for 15 min and the fluorescence spectrum (530 nm (excitation) and 600 nm (emission)) was taken. Donepezil and tacrine were used as reference compounds. The blank contained propidium iodide of the same concentration in 1 mM Tris-HCl buffer pH 8.0. The measurements were carried out in triplicate on a microplate reader FLUOStar Optima (BMG Labtech Germany).
The degree of displacement (% displacement) of propidium iodide from the peripheral anionic site of AChE was calculated by the following formula: %Displacement=100−(IFAChE+Propidium+inhibitor/IFAChE+Propidium)[…], where IFAChE + Propidium is the fluorescence intensity of the propidium associated with AChE in the absence of the test compound (taken as 100%), and IFAChE + Propidium + inhibitor is the fluorescence intensity of the propidium associated with AChE in the presence of the test compound.

[2] = tested on: isolated rat liver mitochondria; test: Mitochondrial membrane potential (safranine O); format: biochemical; conditions: 30 µM, 10-min incubation, mean ± SD, n ≥ 5; for ΔΨm, % depolarization, CI (g/m): energized with Complex-I substrates (glutamate, malate); for ΔΨm, % depolarization, CII (s/r): energized with succinate in the presence of rotenone
Source text: Mitochondria and the mitochondrial permeability transition (MPT) are key players in the cascades of events leading to cell death. Consequently, inhibition of the MPT is a promising target in neuroprotection. On the other hand, depolarization of mitochondria is widely used a predictor of toxicity[72] but depolarization connected with uncoupling of the respiratory chain or stimulation of electron flux can also be cytoprotective. Due to its redox-cycling capability, MB can restore the electron flux in the respiratory chain in the presence of inhibitors of complex-I[74]. […] Consequently, we measured the effect of our conjugates of MB and γ-carbolines on mitochondrial membrane potential under two conditions. (C1) Mitochondria were energized with NADH-dependent substrates of Complex-I (glutamate and malate). (CII) Mitochondria were energized with an FADH2-dependent substrate of Complex II (succinate) in the presence of rotenone, a Complex-I inhibitor. Conjugates (30 μM) were incubated with mitochondria and the effect on mitochondrial membrane potential was measured. For comparison, mitochondria were incubated with MB, MBH2, and Dimebon (30 μM each).
Safranine O (10 µM) was used as a membrane potential probe. Fluorescence intensity at 580 nm (excitation at 520 nm) was measured with Victor3 multi-well fluorescence plate reader (Perkin Elmer, Germany). Mitochondrial protein concentration was 0.2 mg/ml. The medium for measurements contained 75 mM sucrose, 225 mM mannitol, 10 mM K-HEPES, 0.02 mM EGTA, and 1 mM KH2PO4 (pH 7.4, 25 °C). After a 5-min incubation, 5 mM glutamate/malate or 5 mM succinate and 0.5 μM rotenone were added to produce the mitochondrial potential. Then the compounds (30 μM) or the same volume of vehicle (DMSO) were injected into the mitochondrial suspension. After 15–20 min, CaCl2 (12.5 μM) was added to each probe to induce the depolarization of mitochondria and after 5 min 0.5 µM carbonyl cyanide m-chlorophenyl hydrazone (CCCP) was added for maximum depolarization of mitochondria. The level of depolarization (ΔΨm) was calculated from the fluorescence value after a 10-min incubation with 30 µM of compounds (or vehicle) normalized between fluorescence measurements after substrate and CCCP additions.

[3] = Oxygen radical absorbance capacity assay (ORAC-FL); conditions: for ORAC TE value: ORAC-FL, AAPH, fluorescein, 37 °C, pH 7.4, Trolox taken as 1; for radical-scavenging activity, ORAC-FL method: result in words
Protocol: The ability of the conjugates to reduce the amount of peroxyl radicals as another characteristic of the antioxidant activity of the compounds was determined using the oxygen radical absorbance capacity by fluorescence (ORAC-FL) method using fluorescein (FL) as a fluorescent probe. The method is based on measuring the decrease in the intensity of fluorescence with time, which characterizes the degree of decay of the fluorescent probe under the influence of peroxyl radicals. In the presence of antioxidants, the degree of decay of the fluorescent probe decreases and, accordingly, the fluorescence time increases.
The ability of compounds to scavenge peroxyl radicals was characterized by the value of the Trolox equivalent (TE, μmol of Trolox per μmol of the tested compound), which is equal to the ratio of the Trolox concentration to the tested compound concentration having the same fluorescence intensity. Peroxyl radical scavenging capacity of Trolox is taken as one (1)[67],[68].
2,2′-Azobis-(amidinopropane) dihydrochloride (AAPH), (±)-6-hydroxy-2,5,7,8-tetramethylchromane-2-carboxylic acid (Trolox) and fluorescein (FL) were purchased from Sigma-Aldrich. The reaction was carried out at 37 °C in 75 mM K,Na phosphate buffer (pH 7.4), and the final reaction mixture was 200 µL. The tested compounds and Trolox standard were dissolved in DMSO to 10 mM and further diluted in 75 mM K,Na phosphate buffer (pH 7.4). […] The blank was composed of 20 µL 75 mM K,Na phosphate buffer (pH 7.4) containing 2% (v/v) DMSO, 120 µL FL and 60 µL AAPH, and was added in each assay. Antioxidant (the test compound or Trolox, 20 µL) and FL (120 µL, final concentration: 70 nM) solutions were placed in a black 96-well microplate and were pre-incubated for 15 min at 37 °C. AAPH solution (60 µL, final concentration 12 mM) was then added rapidly using a multichannel pipette. The fluorescence was recorded every minute for 100 min. A Trolox standard curve was also obtained in each assay. All reactions were carried out in triplicate and at least three different assays were performed for each sample.
Antioxidant curves (fluorescence vs. time) were first normalized to the curve of the blank (without antioxidant) corresponding to the same assay, and the area under the fluorescence decay curve (AUC) was calculated. The net AUC corresponding to a sample was calculated by subtracting the AUC corresponding to the blank. Regression equations were calculated by plotting the net AUC against the antioxidant concentration. The ORAC value was obtained by dividing the slope of the latter curve by the slope of the Trolox curve obtained in the same assay. […] Data were expressed as means ± SEM.

[4] = tested on: isolated rat liver mitochondria; test: Inhibition of iron-induced lipid peroxidation (TBARs); conditions: read-out: IC50 of Fe3+-induced LP, LP induced by 0.5 mM Fe3+, mean ± SEM, n ≥ 3

T1 sequence (O42275 24-633): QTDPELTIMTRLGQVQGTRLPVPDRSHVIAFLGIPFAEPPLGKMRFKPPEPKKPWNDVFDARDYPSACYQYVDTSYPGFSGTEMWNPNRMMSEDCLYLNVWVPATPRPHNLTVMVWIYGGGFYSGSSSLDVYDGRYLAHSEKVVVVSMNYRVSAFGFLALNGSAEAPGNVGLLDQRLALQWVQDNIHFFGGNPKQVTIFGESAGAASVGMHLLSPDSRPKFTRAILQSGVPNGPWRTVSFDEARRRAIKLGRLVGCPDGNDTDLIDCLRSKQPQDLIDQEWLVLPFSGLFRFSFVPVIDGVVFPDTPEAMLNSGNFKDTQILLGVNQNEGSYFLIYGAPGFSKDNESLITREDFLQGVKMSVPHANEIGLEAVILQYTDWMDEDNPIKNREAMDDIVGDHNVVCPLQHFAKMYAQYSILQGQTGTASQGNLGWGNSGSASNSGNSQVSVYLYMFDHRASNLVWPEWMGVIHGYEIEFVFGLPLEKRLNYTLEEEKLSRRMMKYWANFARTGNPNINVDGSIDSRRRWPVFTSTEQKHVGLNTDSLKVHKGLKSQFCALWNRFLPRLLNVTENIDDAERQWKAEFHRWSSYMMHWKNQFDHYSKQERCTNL

SMILES	% Displacement of propidium iodide, 3 µM [1]	% Displacement of propidium iodide, 20 µM [1]	ΔΨm, % depolarization, CI (g/m) [2] [%]	ΔΨm, % depolarization, CII (s/r) [2] [%]	ORAC TE value [3] [µmol Trolox/ µmol comp.]	IC50 [4] [nM]	radical-scavenging activity, ORAC-FL method [3]
CCN1CCc2c(c3cc(C)ccc3n2CCC(=O)N2c3ccc(N(C)C)cc3Sc3cc(N(C)C)ccc32)C1.Cl.Cl.Cl [Compound 4]	11.8 ± 0.6%	37.6 ± 1.8%	9 ± 1	43 ± 3	9.82 ± 0.79	710 ± 10	–
CCCN1CCc2c(c3cc(C)ccc3n2CCC(=O)N2c3ccc(N(C)C)cc3Sc3cc(N(C)C)ccc32)C1.Cl.Cl.Cl [Compound 5]	14.2 ± 0.9%	35.1 ± 0.9%	17 ± 2	69 ± 2	7.70 ± 0.84	750 ± 10	–
CN1CCc2c(c3cc(F)ccc3n2CCC(=O)N2c3ccc(N(C)C)cc3Sc3cc(N(C)C)ccc32)C1 [Compound 7]	6.7 ± 0.5%	29.8 ± 2.1%	13 ± 3	67 ± 1	10.93 ± 0.98	3200 ± 400	–
Cc1ccc2c(c1)c1c(n2CCC(=O)N2c3ccc(N(C)C)cc3Sc3cc(N(C)C)ccc32)CCN(C(C)C)C1.Cl.Cl.Cl [Compound 6]	7.7 ± 0.5%	30.0 ± 0.9%	8 ± 2	44 ± 5	7.12 ± 0.64	580 ± 30	–
CN1CCc2c(c3ccccc3n2CCC(=O)N2c3ccc(N(C)C)cc3Sc3cc(N(C)C)ccc32)C1.Cl.Cl.Cl [Compound 1]	–	–	20 ± 1	64 ± 2	7.28 ± 0.65	1450 ± 290	–
CCN1CCc2c(c3ccccc3n2CCC(=O)N2c3ccc(N(C)C)cc3Sc3cc(N(C)C)ccc32)C1.Cl.Cl.Cl [Compound 2]	12.9 ± 1.1%	37.1 ± 2.0%	7 ± 1	48 ± 1	8.80 ± 0.96	680 ± 70	–
CN(C)c1ccc2nc3ccc(=[N+](C)C)cc-3sc2c1 [MB, methylene blue, reference compound]	20% and 20.9 ± 1.9%	40% and 40.8 ± 3.7%	14 ± 7	40 ± 9	–	4000 ± 600	not detectable
CN(C)c1ccc2c(c1)Sc1cc(N(C)C)ccc1N2 [MBH2, leucomethylene blue, reference compound]	17.7 ± 1.8%	36.9 ± 3.3%	–	18 ± 1	–	1580 ± 490	not detectable
Cc1ccc2c(c1)c1c(n2CCC(=O)N2c3ccc(N(C)C)cc3Sc3cc(N(C)C)ccc32)CCN(C)C1 [Compound 3]	8.1 ± 0.7%	35.6 ± 1.5%	29 ± 11	67 ± 2	7.44 ± 0.74	2290 ± 470	–
